Converted amounts (≈) assume the structure as drawn.
Experiments:
[1] = test system: antiserum raised to Immunogen C (Hapten-C-BTG); assay: Competitive ELISA with antiserum raised to Immunogen C and Conjugate C (Hapten-C-HRP) as detection reagent; assay type: binding, sheep; conditions: for % CR (percentage cross-reactivity based on specificity to Zaleplon) / IC50 (standard concentration which produces 50% B/B0): antiserum to Immunogen C, Conjugate C
[2] = test system: antiserum raised to Immunogen A (Hapten-A-BTG); assay: Competitive ELISA with antiserum raised to Immunogen A and Conjugate A (Hapten-A-HRP) as detection reagent; assay type: binding, sheep
Procedure: Aqueous solutions of the immunogens prepared in Examples 6 and 12 were formulated with Freund's Complete Adjuvant (FCA) to form emulsions of Immunogen A and Immunogen [[B]]C in 50% (v/v) FCA. Individual sheep were immunised with the emulsions of Immunogen A and Immunogen C (primary immunisations), 0.25 ml being subcutaneously injected in the flank of each animal. Subsequent boosts of emulsified immunogens in 50% (v/v) Freund's Incomplete Adjuvant (FIA) were at monthly intervals for 1 year. Blood sampling took place 7-14 days after each boost. Each sample was processed to produce antisera which were further purified by caprylic acid and ammonium sulfate precipitated to yield an immunoglobulin G (IgG) fraction. The IgG fraction was evaluated by competitive ELISA microtitre plate assay, as described in Example 15.
The wells of an enhanced binding 96 well polystyrene microtitre plate were coated with the IgG fraction of the antiserum raised to Immunogen A Hapten A-BTG diluted in 10 mM Tris, pH8.5 (125 μl/well). The appropriate antibody coating dilution was determined using standard ELISA chequerboard techniques. The plate was incubated for 2 hours at 37° C., washed 4 times with Tris buffered saline containing Tween 20 (TBST) and tapped dry. […] 75 μl of Conjugate A (Hapten A-HRP), diluted in Tris buffer containing EDTA, D-mannitol, sucrose, thimerosal and BSA, was added to each of the wells. The appropriate dilution of conjugate was also determined using standard ELISA chequerboard techniques. The plate was incubated at 25° C. for 1 hour. The excess unbound conjugate was removed by washing 6 times over a 10 minute period with TBST. 125 μl of tetramethylbenzedine (TMB) substrate solution was added to each well of the plate and incubated for 20 minutes in the dark at room temperature. The reaction was stopped by the addition of 125 μl of 0.2M H2SO4 to each well. The absorbance was then measured at 450 nm using a microtitre plate reader.

[3] = standard concentration 0.156 ng/ml
[4] = standard concentration 0.313 ng/ml
[5] = standard concentration 0.625 ng/ml
[6] = standard concentration 1.250 ng/ml
[7] = standard concentration 2.500 ng/ml
[8] = standard concentration 5.000 ng/ml
[9] = standard concentration 10.000 ng/ml
[10] = antiserum to Immunogen A, Conjugate A
[11] = standard concentration 0.025 ng/ml
[12] = standard concentration 0.050 ng/ml
[13] = standard concentration 0.100 ng/ml
[14] = standard concentration 0.200 ng/ml
[15] = standard concentration 0.400 ng/ml
[16] = standard concentration 0.800 ng/ml
[17] = standard concentration 1.600 ng/ml

SMILES | % CR (percentage cross-reactivity based on specificity to Zaleplon) [1] [%] | IC50 (standard concentration which produces 50% B/B0) [1] [ng/mL] | % B/B0 [1, 3] [%] | A450 [1, 3] | % B/B0 [1, 4] [%] | A450 [1, 4] | % B/B0 [1, 5] [%] | A450 [1, 5] | % B/B0 [1, 6] [%] | A450 [1, 6] | % B/B0 [1, 7] [%] | A450 [1, 7] | % B/B0 [1, 8] [%] | A450 [1, 8] | % B/B0 [1, 9] [%] | A450 [1, 9] | % CR (percentage cross-reactivity based on specificity to Zaleplon) [2, 10] [%] | also measured
CC(=O)N(C)c1cccc(-c2ccnc3c(C(=O)c4cccs4)cnn23)c1 [Indiplon, indiplon] | 22 | 1.967 (≈ 5.23 nM) | 84 | 1.831 | 77 | 1.664 | 67 | 1.455 | 57 | 1.234 | 46 | 1.006 | 36 | 0.778 | 27 | 0.579 | <0.63 | IC50 (standard concentration which produces 50% B/B0) [2, 10]: >10 ng/mL; % B/B0 [2, 3]: 96%; A450 [2, 3]: 2.063; % B/B0 [2, 4]: 94%; A450 [2, 4]: 2.019; % B/B0 [2, 5]: 93%; A450 [2, 5]: 1.982; % B/B0 [2, 6]: 99%; A450 [2, 6]: 2.112; % B/B0 [2, 7]: 88%; A450 [2, 7]: 1.877; % B/B0 [2, 8]: 91%; A450 [2, 8]: 1.940; % B/B0 [2, 9]: 90%; A450 [2, 9]: 1.931
CCN(C(C)=O)c1cccc(-c2ccnc3c(C#N)cnn23)c1 [Zaleplon, zaleplon] | 100 | 0.432 (≈ 1.41 nM) | 65 | 1.487 | 54 | 1.236 | 45 | 1.021 | 36 | 0.825 | 27 | 0.610 | 20 | 0.457 | 15 | 0.337 | 100 | IC50 of zaleplon-specific antibody ([2]; as stated in the description): 0.063 ng/mL; % B/B0 [2, 11]: 72%; A450 [2, 11]: 1.542; % B/B0 [2, 12]: 55%; A450 [2, 12]: 1.180; % B/B0 [2, 13]: 40%; A450 [2, 13]: 0.860; % B/B0 [2, 14]: 28%; A450 [2, 14]: 0.602; % B/B0 [2, 15]: 19%; A450 [2, 15]: 0.406; % B/B0 [2, 16]: 13%; A450 [2, 16]: 0.286; % B/B0 [2, 17]: 10%; A450 [2, 17]: 0.211
